The target in one test is T1, human MAO-B (Homo sapiens, UniProt P27338).
T1 construct: expressed in transfected cells; host or cells: EBNA cells (transient transfection); cell membranes used
T1 sequence (P27338 1-520): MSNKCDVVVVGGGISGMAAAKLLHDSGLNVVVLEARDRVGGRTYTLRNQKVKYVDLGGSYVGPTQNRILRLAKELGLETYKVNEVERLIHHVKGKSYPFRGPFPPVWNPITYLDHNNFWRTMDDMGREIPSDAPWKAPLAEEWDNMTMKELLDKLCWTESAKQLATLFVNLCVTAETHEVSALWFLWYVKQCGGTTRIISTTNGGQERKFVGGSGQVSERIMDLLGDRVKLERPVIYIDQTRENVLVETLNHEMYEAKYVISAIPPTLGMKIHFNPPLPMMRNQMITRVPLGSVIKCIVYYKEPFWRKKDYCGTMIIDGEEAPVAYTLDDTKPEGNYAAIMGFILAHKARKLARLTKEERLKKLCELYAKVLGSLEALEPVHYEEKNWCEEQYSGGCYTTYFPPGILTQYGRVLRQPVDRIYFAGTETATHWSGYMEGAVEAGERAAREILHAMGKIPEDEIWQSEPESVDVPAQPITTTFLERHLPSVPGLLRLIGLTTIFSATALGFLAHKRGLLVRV
Briefly: MAO-B enzymatic activity, spectrophotometric assay (tyramine, Amplex Red) on membranes of transfected EBNA cells. In kind it is biochemical. The procedure: The cDNA's encoding human MAO-A and MAO-B were transiently transfected into EBNA cells using the procedure described by E.-J. Schlaeger and K. Christensen (Transient Gene Expression in Mammalian Cells Grown in Serum-free Suspension Culture; Cytotechnology, 15: 1-13, 1998). After transfection, cells were homogenised by means of a Polytron homogenizer in 20 mM Tris HCl buffer, pH 8.0, containing 0.5 mM EGTA and 0.5 mM phenylmethanesulfonyl fluoride. Cell membranes were obtained by centrifugation at 45,000×g and, after two rinsing step with 20 mM Tris HCl buffer, pH 8.0, containing 0.5 mM EGTA, membranes were eventually re-suspended in the above buffer and aliquots stored at −80° C. until use.
(§1) MAO-A and MAO-B enzymatic activity was assayed in 96-well-plates using a spectrophotometric assay adapted from the method described by M. Zhou and N. Panchuk-Voloshina (A One-Step Fluorometric Method for the Continuous Measurement of Monoamine Oxidase Activity, Analytical Biochemistry, 253: 169174, 1997). Briefly, membrane aliquots were incubated in 0.1 M potassium phosphate buffer, pH 7.4, for 30 min at 37° C. with or without various concentrations of the compounds. After this period, the enzymatic reaction was started by the addition of the MAO substrate tyramine together with 1 U/ml horse-radish peroxidase (Roche Biochemicals) and 80 μM N-acetyl-3,7,-dihydroxyphenoxazine (Amplex Red, Molecular Probes). The samples were further incubated for 30 min at 37° C. in a final volume of 200 μl and absorbance was then determined at a wavelength of 570 nm using a SpectraMax plate reader (Molecular Devices). Background (non-specific) absorbance was determined in the presence of 10 μM clorgyline for MAO-A or 10 μM L-deprenyl for MAO-B.
IC50 values, that is, the concentration of a test compound according to the invention required to inhibit the MAO-B enzyme activity by 50%, were determined from inhibition curves obtained using nine inhibitor concentrations in duplicate, by fitting data to a four parameter logistic equation using a computer program.

A further test has as its target T2, human MAO-A (Homo sapiens, UniProt P21397).
T2 construct: expressed in transfected cells; host or cells: EBNA cells (transient transfection); cell membranes used
In words: MAO-A enzymatic activity, spectrophotometric assay (tyramine, Amplex Red) on membranes of transfected EBNA cells. In kind it is biochemical. The procedure: After transfection, cells were homogenised by means of a Polytron homogenizer in 20 mM Tris HCl buffer, pH 8.0, containing 0.5 mM EGTA and 0.5 mM phenylmethanesulfonyl fluoride. Cell membranes were obtained by centrifugation at 45,000×g and, after two rinsing step with 20 mM Tris HCl buffer, pH 8.0, containing 0.5 mM EGTA, membranes were eventually re-suspended in the above buffer and aliquots stored at −80° C. until use.
as §1, with “Briefly,” for “MAO-A and MAO-B enzymatic activity was assayed in 96-well-plates using a spectrophotometric assay adapted from the method described by M. Zhou and N. Panchuk-Voloshina (A One-Step Fluorometric Method for the Continuous Measurement of Monoamine Oxidase Activity, Analytical Biochemistry, 253: 169174, 1997). Briefly,”

[1] abbreviates: membranes, 30 min preincubation at 37° C., pH 7.4, substrate tyramine, read-out: IC50 MAO-A.

Like-named read-outs stand apart in the source and are kept apart here.

Drawing on patent US6818774B2, “Isoquinoline derivatives” (priority 2002, dated 2004), this text covers IC50 for 11 compounds.

A word on the IC50: it is the concentration needed to halve the response being measured.

T2 sequence (P21397 whole entry): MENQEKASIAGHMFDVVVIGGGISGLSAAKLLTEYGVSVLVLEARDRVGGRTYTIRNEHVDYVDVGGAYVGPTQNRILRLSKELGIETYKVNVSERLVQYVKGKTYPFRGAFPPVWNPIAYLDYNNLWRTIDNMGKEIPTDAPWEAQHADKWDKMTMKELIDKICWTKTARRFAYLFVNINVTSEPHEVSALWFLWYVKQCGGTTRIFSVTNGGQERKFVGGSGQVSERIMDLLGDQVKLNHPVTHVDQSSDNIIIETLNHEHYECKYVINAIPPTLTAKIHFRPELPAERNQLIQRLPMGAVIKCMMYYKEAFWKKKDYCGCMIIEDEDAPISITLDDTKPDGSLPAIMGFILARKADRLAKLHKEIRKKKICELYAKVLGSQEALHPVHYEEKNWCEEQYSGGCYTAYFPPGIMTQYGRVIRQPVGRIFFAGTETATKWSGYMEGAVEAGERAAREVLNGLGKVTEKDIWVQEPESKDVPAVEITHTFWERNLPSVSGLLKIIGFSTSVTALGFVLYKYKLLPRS

In the case of `CC(C(N)=O)N1CCc2cc(OCc3cccc(F)c3)ccc2C1=O` (racemic) [Example 7, 2-[6-(3-Fluoro-benzyloxy)-1-oxo-3,4-dihydro-1H-isoquinolin-2-yl]-propionamide], the IC50 is 12 nM against human MAO-B and above 10 µM at human MAO-A (setting [1]).

With `O=C1NCCc2cc(OCc3cccc(F)c3)ccc21` [Example 1, 6-(3-Fluoro-benzyloxy)-3,4-dihydro-2H-isoquinolin-1-one], the IC50 was found to be 104 nM at human MAO-B and 5.24 µM on human MAO-A (setting [1]). Take `NC(=O)CN1CCc2cc(OCc3cccc(F)c3)ccc2C1=O` [Example 6, 2-[6-(3-Fluoro-benzyloxy)-1-oxo-3,4-dihydro-1H-isoquinolin-2-yl]-acetamide]: the half-inhibitory concentration (IC50) against human MAO-B worked out at 8 nM; on human MAO-A (setting [1]), 0.33 µM. As for `CC(CO)N1CCc2cc(OCc3cccc(F)c3)ccc2C1=O` (stereo not shown) [Example 8, 6-(3-Fluoro-benzyloxy)-2-(2-hydroxy-1-methyl-ethyl)-3,4-dihydro-2H-isoquinolin-1-one], the concentration for half-maximal inhibition (IC50) is 74 nM against human MAO-B and above 10 µM on human MAO-A (setting [1]). Regarding `N#CCN1CCc2cc(OCc3cccc(F)c3)ccc2C1=O` [Example 12, [6-(3-Fluoro-benzyloxy)-1-oxo-3,4-dihydro-1H-isoquinolin-2-yl]-acetonitrile], the IC50 on human MAO-B turned out to be 154 nM. With `COCC(C)N1CCc2cc(OCc3cccc(F)c3)ccc2C1=O` (stereo not shown) [Example 14, 6-(3-Fluoro-benzyloxy)-2-(2-methoxy-1-methyl-ethyl)-3,4-dihydro-2H-isoquinolin-1-one], the IC50 against human MAO-B turned out to be 63 nM; on human MAO-A, 4.22 µM. For `NC(=O)CCN1CCc2cc(OCc3cccc(F)c3)ccc2C1=O` [Example 19, 3-[6 (3-Fluoro-benzyloxy)-1-oxo-3,4-dihydro-1H-isoquinolin-2-yl]-propionamide], at human MAO-B, 392 nM corresponded to half-maximal inhibition (IC50). For `C[C@H](C(N)=O)N1CCc2cc(OCc3ccc(F)cc3)ccc2C1=O` [Example 20, 2-(R)-[6-(4-Fluoro-benzyloxy)-1-oxo-3,4-dihydro-1H-isoquinolin-2-yl]-propionamide], the IC50 against human MAO-B is 12 nM; against human MAO-A, above 10 µM. As for `C[C@@H](C(N)=O)N1CCc2cc(OCc3ccc(F)cc3)ccc2C1=O` [Example 21, 2(S)-[6-(4-Fluoro-benzyloxy)-1-oxo-3,4-dihydro-1H-isoquinolin-2-yl]-propionamide], the IC50 at human MAO-B was 18 nM; against human MAO-A, above 10 µM. Regarding `NC(=O)[C@H](CO)N1CCc2cc(OCc3ccc(F)cc3)ccc2C1=O` [Example 22, 2(S)-[6(4-Fluoro-benzyloxy)-1-oxo-3,4-dihydro-1H-isoquinolin-2-yl]-3-hydroxy-propionamide], the IC50 at human MAO-B was 20 nM; against human MAO-A, above 10 µM. Compound `CC(C)(C(N)=O)N1CCc2cc(OCc3ccc(F)cc3)ccc2C1=O` [Example 30, 2-[6-(4-Fluoro-benzyloxy)-1-oxo-3,4-dihydro-1H-isoquinolin-2-yl]-isobutyramide] displayed a 50% inhibitory concentration (IC50) against human MAO-B of 1130 nM.
